Results: patent US20260324636A1, “COMPOSITION FOR PROVIDING PLANT WITH STRESS RESISTANCE” (KIRIN HOLDINGS KABUSHIKI KAISHA, priority 2022, published 2026)

Legend:
[1] = tested on: H1HSP17.6C; assay: H1HSP17.6C gene expression by real-time PCR, Example 7; type: in vivo, hop; conditions: 1 mM in medium, 20° C. for 2 hours, leaves; read-out: H1HSP17.6C expression level, increase vs control
From the text: In order to design primers for the target genes necessary for gene expression analysis by real-time PCR, homologs of Arabidopsis thaliana high-temperature-responsive genes in hop were searched for. The amino acid sequences of Arabidopsis thaliana HSFA2 (AGI code: AT2G26150) and HSP17.6C (AGI code: AT1G53540) were obtained from TAIR (https://www.arabidopsis.org/), and the nucleotide sequences of the gene homologs were obtained using Hopbase (https://hopbase.cgrb.oregonstate.edu/). […] As the reference gene, the nucleotide sequence of the homolog of Arabidopsis thaliana EF1α (AGI code: AT1G18070) was obtained. The hop homolog genes were designated as H1HSFA2, H1HSP17.6C, and HIEF1α, respectively.
The materials as used in Example 4 were used.
The methods as employed in Example 4 were employed.
The leaves in the first and the second nodes from the apical buds of the tissue-cultured seedlings were sampled 1.5 months after the initiation of subculture and inoculated into a liquid medium consisting of a ½ Murashige and Skoog Plant Salt Mixture and 2 (w/v) % glucose. Specifically, a liquid medium was dispensed at 5 ml/well to a 6-well microplate (IWAKI), and 5 hop leaves were mounted thereon. […]
Thereafter, the relative expression level of the target gene upon N-acetylglutamic acid treatment was calculated by the ΔΔCt method.

[2] = tested on: ZAT10; assay: Histone H4 acetylation level of ZAT10 by chromatin immunoprecipitation and quantitative PCR, Example 14; type: in vivo, Arabidopsis thaliana (Col-0); conditions: Arabidopsis thaliana; 0.4 mM in medium, 2 hours after application; read-out: histone H4 acetylation level of ZAT10, increase vs group not subjected to the treatment
Experimental: (§1) A wild-type Arabidopsis thaliana strain (accession: Col-0) was used as an experimental material. Seeds were purchased from Inplanta Innovations Inc.
(§2) A liquid medium containing a ½ Murashige and Skoog Plant Salt Mixture (Nacalai) and 1 (w/v) % sucrose (FUJIFILM Wako) was used as a growth medium.
(§3) Arabidopsis thaliana seeds were sterilized with the use of a Kitchen Haiter® liquid (Kao Corporation) diluted to one-half concentration with distilled water for 3 minutes, washed 3 times with sterile distilled water, and then incubated at 4° C. overnight. The growth medium (100 ml) was prepared in a 300-ml flask, the incubated seeds were seeded therein, the flask was transferred to an incubator (TOMY), and shake culture was then initiated. The incubator was maintained at a temperature of 22° C. for a daily cycle of 16 hours light and 8 hours darkness, and the rotation speed of the shaker was set at 180 rpm.
(§4) A stock solution of N-acetylglutamic acid (Tokyo Chemical Industry Co., Ltd.) was added to Arabidopsis thaliana 7 days after seeding to the final concentration of 0 mM and 0.4 mM in the media, followed by incubation for 2 hours. Sample fixation following incubation was performed in accordance with Yamaguchi et al (Arabidopsis Book, Feb. 17, 2014; 12: e0170). […]

[3] = tested on: HSFA2; assay: Histone H4 acetylation level of HSFA2 by chromatin immunoprecipitation and quantitative PCR, Example 14; type: in vivo, Arabidopsis thaliana (Col-0); conditions: Arabidopsis thaliana; 0.4 mM in medium, 2 hours after application; read-out: histone H4 acetylation level of HSFA2, increase vs group not subjected to the treatment
Experimental: as §1, §2, §3, §4

Work on `CC(=O)N[C@@H](CCC(=O)O)C(=O)O` [N-acetylglutamic acid] yielded a fold induction at 1000 µM [1] of 1.8, a fold induction at 400 µM [2] of 1.9 and a fold induction at 400 µM [3] of 2.
